Measured values as given in ChEMBL document CHEMBL1201862, “PubChem BioAssay data set” (2004).
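Compound exposure: 48 hours, 5 concentrations, 96-well plates. At the GI50, growth is halved.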 Activity calls are given as the source filed them. No stated cut-off is given here; in the data, active = GI50 up to about 1.1 µM and inactive = higher.

Key:
Assay in all cases: NCI anticancer screen, dose series, 48 h
U-251 = test system: U-251
SK-MEL-2 = test system: SK-MEL-2
HCC 2998 = test system: HCC 2998
HT-29 = test system: HT-29
UACC-62 = test system: UACC-62
NCI/ADR-RES = test system: NCI/ADR-RES
SF-295 = test system: SF-295
SF-268 = test system: SF-268
HCT-15 = test system: HCT-15
NCI-H23 = test system: NCI-H23
MOLT-4 = test system: MOLT-4
LOX IMVI = test system: LOX IMVI
786-0 = test system: 786-0
Malme-3M = test system: Malme-3M
SNB-75 = test system: SNB-75
SK-MEL-28 = test system: SK-MEL-28
HCT-116 = test system: HCT-116
HOP-92 = test system: HOP-92
HOP-62 = test system: HOP-62

Compound	GI50 (U-251)	GI50 (SK-MEL-2)	GI50 (HCC 2998)	GI50 (HT-29)	GI50 (UACC-62)	GI50 (NCI/ADR-RES)	GI50 (SF-295)	GI50 (SF-268)	GI50 (HCT-15) [µM]	GI50 (NCI-H23)	GI50 (MOLT-4)	GI50 (LOX IMVI)	GI50 (786-0)	GI50 (Malme-3M)	GI50 (SNB-75)	GI50 (SK-MEL-28)	GI50 (HCT-116)	GI50 (HOP-92)	GI50 (HOP-62)
O=C(O)c1cc(/C=C/c2cc(O)ccc2O)ccc1O	> 10 µM (inactive)	> 10 µM (inactive)	> 10 µM (inactive)	> 10 µM (inactive)	> 10 µM (inactive)	> 10 µM (inactive)	> 10 µM (inactive)	> 10 µM (inactive)	> 10	> 10 µM (inactive)	> 10 µM (inactive)	> 10 µM (inactive)	> 10 µM (inactive)	> 10 µM (inactive)					
CCCCC1CC(c2ccc(Cl)cc2)=NO1 (centres undefined)	> 100 µM (inactive)	> 100 µM (inactive)	> 100 µM (inactive)	> 100 µM (inactive)	> 100 µM (inactive)		> 100 µM (inactive)	> 100 µM (inactive)	> 100	> 100 µM (inactive)	> 100 µM (inactive)		> 100 µM (inactive)	> 100 µM (inactive)	> 100 µM (inactive)	> 100 µM (inactive)	> 100 µM (inactive)	> 100 µM (inactive)	> 100 µM (inactive)
CCC[C@H]1O[C@@H]2CC(=O)O[C@@H]2C2=C1C(=O)C=CC2=O	> 39.4 µM (inactive)	20.3 µM (inactive)	> 43.1 µM (inactive)	22 µM (inactive)	17.9 µM (inactive)		25.4 µM (inactive)	12.9 µM (inactive)	15.3	13.6 µM (inactive)	3.32 µM (inactive)	21 µM (inactive)	16.3 µM (inactive)	18.2 µM (inactive)	17 µM (inactive)	17.2 µM (inactive)	18 µM (inactive)	2.7 µM (inactive)	> 54.1 µM (inactive)
COCCN1C2=CCCCC2=Nc2c(N)nc(N)nc21	> 100 µM (inactive)	> 100 µM (inactive)	> 100 µM (inactive)	> 100 µM (inactive)	> 100 µM (inactive)		> 100 µM (inactive)	> 100 µM (inactive)	> 100	> 100 µM (inactive)	> 100 µM (inactive)	> 100 µM (inactive)	> 100 µM (inactive)	> 100 µM (inactive)	> 100 µM (inactive)	> 100 µM (inactive)	> 100 µM (inactive)	> 100 µM (inactive)	> 100 µM (inactive)
COC(=O)C1Cc2c([nH]c3ccccc23)C(c2ccccc2O)N1Cc1ccccc1 (centres undefined)	20.6 µM (inactive)	21.8 µM (inactive)	> 31.6 µM (inactive)	28.2 µM (inactive)	25.4 µM (inactive)		21 µM (inactive)	26.4 µM (inactive)	> 46.5	44.3 µM (inactive)	42.1 µM (inactive)	44.9 µM (inactive)	20.7 µM (inactive)	> 31.6 µM (inactive)	7.05 µM (inactive)	> 31.6 µM (inactive)	23.3 µM (inactive)	22.6 µM (inactive)	41.2 µM (inactive)
CC(=O)C1Cn2c(nc3ccccc32)C[Se]1 (centres undefined)	2 µM (inactive)		10.3 µM (inactive)	7.48 µM (inactive)	1.97 µM (inactive)		3.26 µM (inactive)	3.85 µM (inactive)	4.56	2.75 µM (inactive)	2.29 µM (inactive)	4.29 µM (inactive)	3.32 µM (inactive)	2.47 µM (inactive)	2.55 µM (inactive)	2.98 µM (inactive)	2.2 µM (inactive)	2.09 µM (inactive)	2.37 µM (inactive)
COc1ccc(OC)c(NC(=O)C(=O)NNC(=O)c2sc(NNC(C)=O)nc2C)c1	36.6 µM (inactive)	43 µM (inactive)	45.1 µM (inactive)	35.6 µM (inactive)	29.6 µM (inactive)		32 µM (inactive)	27.3 µM (inactive)	31	21.8 µM (inactive)	18.7 µM (inactive)	26.2 µM (inactive)	35.6 µM (inactive)	49.2 µM (inactive)		61.2 µM (inactive)	28.6 µM (inactive)	8.69 µM (inactive)	92.9 µM (inactive)
C=C1C(=O)OC2/C=C(\C)C3OC3/C=C(/C(=O)OC)C(O)C(OC(=O)C3(C)OC3C)C12 (centres undefined)	4.58 µM (inactive)	2.48 µM (inactive)	1.9 µM (inactive)	1.65 µM (inactive)	1.01 µM (active)		13.6 µM (inactive)	15.3 µM (inactive)	1.53	1.85 µM (inactive)	0.681 µM (active)	1.76 µM (inactive)	1.74 µM (inactive)	1.52 µM (inactive)	13.5 µM (inactive)	1.52 µM (inactive)	1.11 µM (active)	2.86 µM (inactive)	17.7 µM (inactive)
O=c1c2ccccc2nc(-c2ccccc2)n1NC1OC(CO)C(O)C(O)C1O (centres undefined)	> 100 µM (inactive)	> 100 µM (inactive)	> 100 µM (inactive)	> 100 µM (inactive)	> 100 µM (inactive)		> 100 µM (inactive)	> 100 µM (inactive)	> 100	> 100 µM (inactive)	> 100 µM (inactive)		> 100 µM (inactive)	> 100 µM (inactive)	85.3 µM (inactive)	> 100 µM (inactive)	> 100 µM (inactive)	> 100 µM (inactive)	> 100 µM (inactive)
COc1cccc(N2C(=O)[C@H]3CC(C)c4c([nH]c5ccccc45)[C@H]3C2=O)c1 (some centres undefined)	38.5 µM (inactive)	27.5 µM (inactive)	> 100 µM (inactive)	36.1 µM (inactive)	39.4 µM (inactive)		23.3 µM (inactive)	> 100 µM (inactive)	> 100	45.7 µM (inactive)	74.1 µM (inactive)	50.6 µM (inactive)	21.7 µM (inactive)	92.3 µM (inactive)	19.6 µM (inactive)	62.4 µM (inactive)		20.7 µM (inactive)	16.8 µM (inactive)
O=C(O)c1cc(=O)c2cc(C(=O)c3cccs3)c(Cl)c(Cl)c2o1	> 100 µM (inactive)	> 100 µM (inactive)	> 100 µM (inactive)	> 100 µM (inactive)	> 100 µM (inactive)		> 100 µM (inactive)	> 100 µM (inactive)		> 100 µM (inactive)	> 100 µM (inactive)		> 100 µM (inactive)	> 100 µM (inactive)	> 100 µM (inactive)	> 100 µM (inactive)		> 100 µM (inactive)	> 100 µM (inactive)
COc1ccc(COCC(Cn2ccnc2)OCc2ccc(C(=O)O)cc2)cc1 (centres undefined)	> 100 µM (inactive)	> 100 µM (inactive)	> 100 µM (inactive)	> 100 µM (inactive)	> 100 µM (inactive)		> 100 µM (inactive)	> 100 µM (inactive)	> 100	> 100 µM (inactive)	> 100 µM (inactive)	> 100 µM (inactive)	> 100 µM (inactive)	> 100 µM (inactive)	59.6 µM (inactive)	> 100 µM (inactive)	> 100 µM (inactive)	> 100 µM (inactive)	> 100 µM (inactive)
